From ChEMBL document CHEMBL1201861, “Genomics of Drug Sensitity in Cancer screening data, Wellcome Trust Sanger Institute”

Assays:
Assay in all cases: cells
HL-60 = format: functional, cell-based, Homo sapiens; conditions: Homo sapiens, HL-60
Description: SANGER: Inhibition of human HL-60 cell growth in a cell viability assay.

EW-16 = format: functional, cell-based, Homo sapiens; conditions: Homo sapiens, EW-16
Description: SANGER: Inhibition of human EW-16 cell growth in a cell viability assay.

LS-411N = format: functional, cell-based, Homo sapiens; conditions: Homo sapiens, LS-411N
LB771-HNC = format: functional, cell-based; conditions: Homo sapiens
Description: SANGER: Inhibition of human LB771-HNC cell growth in a cell viability assay.

SW756 = format: functional, cell-based; conditions: Homo sapiens
Description: SANGER: Inhibition of human SW756 cell growth in a cell viability assay.

NCI-H1155 = format: functional, cell-based, Homo sapiens; conditions: Homo sapiens, NCI-H1155
Description: SANGER: Inhibition of human NCI-H1155 cell growth in a cell viability assay.

LC-2-ad = format: functional, cell-based, Homo sapiens; conditions: Homo sapiens, LC-2-ad
Description: SANGER: Inhibition of human LC-2-ad cell growth in a cell viability assay.

J-RT3-T3-5 = format: functional, cell-based, Homo sapiens; conditions: Homo sapiens, J-RT3-T3-5
Description: SANGER: Inhibition of human J-RT3-T3-5 cell growth in a cell viability assay.

EKVX = format: functional, cell-based, Homo sapiens; conditions: Homo sapiens, EKVX
Description: SANGER: Inhibition of human EKVX cell growth in a cell viability assay.

NCI-H226 = format: functional, cell-based, Homo sapiens; conditions: Homo sapiens, NCI-H226
Description: SANGER: Inhibition of human NCI-H226 cell growth in a cell viability assay.

HT = format: functional, cell-based, Homo sapiens; conditions: Homo sapiens, HT
Description: SANGER: Inhibition of human HT cell growth in a cell viability assay.

SCH = format: functional, cell-based, Homo sapiens; conditions: Homo sapiens, SCH
Description: SANGER: Inhibition of human SCH cell growth in a cell viability assay.

RXF 393 = format: functional, cell-based, Homo sapiens; conditions: Homo sapiens, RXF 393
Description: SANGER: Inhibition of human RXF393 cell growth in a cell viability assay.

SK-PN-DW = format: functional, cell-based, Homo sapiens; conditions: Homo sapiens, SK-PN-DW
Description: SANGER: Inhibition of human SK-PN-DW cell growth in a cell viability assay.

C32 = format: functional, cell-based; conditions: Homo sapiens
Description: SANGER: Inhibition of human C32 cell growth in a cell viability assay.

KARPAS-45 = format: functional, cell-based, Homo sapiens; conditions: Homo sapiens, KARPAS-45
Description: SANGER: Inhibition of human KARPAS-45 cell growth in a cell viability assay.

TE-12 = format: functional, cell-based, Homo sapiens; conditions: Homo sapiens, TE-12
Description: SANGER: Inhibition of human TE-12 cell growth in a cell viability assay.

KY821 = format: functional, cell-based, Homo sapiens; conditions: Homo sapiens, KY821
Description: SANGER: Inhibition of human KY821 cell growth in a cell viability assay.

UACC-257 = format: functional, cell-based, Homo sapiens; conditions: Homo sapiens, UACC-257
Description: SANGER: Inhibition of human UACC-257 cell growth in a cell viability assay.

TGBC24TKB = format: functional, cell-based; conditions: Homo sapiens
Description: SANGER: Inhibition of human TGBC24TKB cell growth in a cell viability assay.

GI-1 = format: functional, cell-based, Homo sapiens; conditions: Homo sapiens, GI-1
Description: SANGER: Inhibition of human GI-1 cell growth in a cell viability assay.

ES3 = format: functional, cell-based, Homo sapiens; conditions: Homo sapiens, ES3
Description: SANGER: Inhibition of human ES3 cell growth in a cell viability assay.

LB1047-RCC = format: functional, cell-based, Homo sapiens; conditions: Homo sapiens, LB1047-RCC
Description: SANGER: Inhibition of human LB1047-RCC cell growth in a cell viability assay.

LU-134-A = format: functional, cell-based, Homo sapiens; conditions: Homo sapiens, LU-134-A
Description: SANGER: Inhibition of human LU-134-A cell growth in a cell viability assay.

A4-Fuk = format: functional, cell-based, Homo sapiens; conditions: Homo sapiens, A4-Fuk
Description: SANGER: Inhibition of human A4-Fuk cell growth in a cell viability assay.

SW 954 = format: functional, cell-based, Homo sapiens; conditions: Homo sapiens, SW 954
Description: SANGER: Inhibition of human SW954 cell growth in a cell viability assay.

JVM-2 = format: functional, cell-based, Homo sapiens; conditions: Homo sapiens, JVM-2
Description: SANGER: Inhibition of human JVM-2 cell growth in a cell viability assay.

LNCaP-Clone-FGC = format: functional, cell-based, Homo sapiens; conditions: Homo sapiens, LNCaP-Clone-FGC
Description: SANGER: Inhibition of human LNCaP-Clone-FGC cell growth in a cell viability assay.

TE-11 = format: functional, cell-based; conditions: Homo sapiens
Description: SANGER: Inhibition of human TE-11 cell growth in a cell viability assay.

DU-4475 = format: functional, cell-based, Homo sapiens; conditions: Homo sapiens, DU-4475
Description: SANGER: Inhibition of human DU-4475 cell growth in a cell viability assay.

KU812 cell line = format: functional, cell-based, Homo sapiens; conditions: Homo sapiens, KU812
Description: SANGER: Inhibition of human KU812 cell growth in a cell viability assay.

CTV-1 = format: functional, cell-based, Homo sapiens; conditions: Homo sapiens, CTV-1
Description: SANGER: Inhibition of human CTV-1 cell growth in a cell viability assay.

ES4 = format: functional, cell-based, Homo sapiens; conditions: Homo sapiens, ES4
Description: SANGER: Inhibition of human ES4 cell growth in a cell viability assay.

KURAMOCHI = format: functional, cell-based, Homo sapiens; conditions: Homo sapiens, KURAMOCHI
Description: SANGER: Inhibition of human KURAMOCHI cell growth in a cell viability assay.

P30-OHK = format: functional, cell-based, Homo sapiens; conditions: Homo sapiens, P30-OHK
Description: SANGER: Inhibition of human P30-OHK cell growth in a cell viability assay.

CAS-1 = format: functional, cell-based, Homo sapiens; conditions: Homo sapiens, CAS-1
Description: SANGER: Inhibition of human CAS-1 cell growth in a cell viability assay.

LAMA-84 = format: functional, cell-based, Homo sapiens; conditions: Homo sapiens, LAMA-84
Description: SANGER: Inhibition of human LAMA-84 cell growth in a cell viability assay.

LAN-6 = format: functional, cell-based, Homo sapiens; conditions: Homo sapiens, LAN-6
Description: SANGER: Inhibition of human LAN-6 cell growth in a cell viability assay.

NKM-1 = format: functional, cell-based, Homo sapiens; conditions: Homo sapiens, NKM-1
Description: SANGER: Inhibition of human NKM-1 cell growth in a cell viability assay.

MC116 = format: functional, cell-based, Homo sapiens; conditions: Homo sapiens, MC116
Description: SANGER: Inhibition of human MC116 cell growth in a cell viability assay.

ACN = format: functional, cell-based, Homo sapiens; conditions: Homo sapiens, ACN
Description: SANGER: Inhibition of human ACN cell growth in a cell viability assay.

DBTRG-05MG = format: functional, cell-based; conditions: Homo sapiens
Description: SANGER: Inhibition of human DBTRG-05MG cell growth in a cell viability assay.

SK-UT-1 = format: functional, cell-based, Homo sapiens; conditions: Homo sapiens, SK-UT-1
Description: SANGER: Inhibition of human SK-UT-1 cell growth in a cell viability assay.

C-33-A = format: functional, cell-based; conditions: Homo sapiens
Description: SANGER: Inhibition of human C-33-A cell growth in a cell viability assay.

A498 = format: functional, cell-based, Homo sapiens; conditions: Homo sapiens, A498
Description: SANGER: Inhibition of human A498 cell growth in a cell viability assay.

NB10 = format: functional, cell-based, Homo sapiens; conditions: Homo sapiens, NB10
Description: SANGER: Inhibition of human NB10 cell growth in a cell viability assay.

DOHH-2 = format: functional, cell-based, Homo sapiens; conditions: Homo sapiens, DOHH-2
Description: SANGER: Inhibition of human DOHH-2 cell growth in a cell viability assay.

TE-1 = format: functional, cell-based, Homo sapiens; conditions: Homo sapiens, TE-1
Description: SANGER: Inhibition of human TE-1 cell growth in a cell viability assay.

HDLM-2 = format: functional, cell-based, Homo sapiens; conditions: Homo sapiens, HDLM-2
Description: SANGER: Inhibition of human HDLM-2 cell growth in a cell viability assay.

## CN(NC(=O)CC(=O)NN(C)C(=S)c1ccccc1)C(=S)c1ccccc1 [ELESCLOMOL]
HL-60
  IC50: 0.0668 µM
EW-16
  IC50: 0.00161 µM
LS-411N
  IC50: 0.102 µM
LB771-HNC
  IC50: > 0.2 µM
SW756
  IC50: 0.00413 µM
NCI-H1155
  IC50: 0.0462 µM
LC-2-ad
  IC50: 0.0278 µM
J-RT3-T3-5
  IC50: 0.0144 µM
EKVX
  IC50: 0.0395 µM
NCI-H226
  IC50: 0.131 µM
HT
  IC50: > 0.2 µM
SCH
  IC50: > 0.2 µM
RXF 393
  IC50: 0.0134 µM
SK-PN-DW
  IC50: 0.00902 µM
C32
  IC50: 0.0263 µM
KARPAS-45
  IC50: > 0.2 µM
TE-12
  IC50: > 0.2 µM
KY821
  IC50: > 0.2 µM
UACC-257
  IC50: 0.022 µM
TGBC24TKB
  IC50: 0.0129 µM
GI-1
  IC50: 0.00826 µM
ES3
  IC50: 0.00579 µM
LB1047-RCC
  IC50: 0.0107 µM
LU-134-A
  IC50: > 0.2 µM
A4-Fuk
  IC50: 0.108 µM
SW 954
  IC50: 0.0142 µM
JVM-2
  IC50: > 0.2 µM
LNCaP-Clone-FGC
  IC50: 0.00773 µM
TE-11
  IC50: 0.0461 µM
DU-4475
  IC50: 0.112 µM
KU812 cell line
  IC50: > 0.2 µM
CTV-1
  IC50: > 0.2 µM
ES4
  IC50: 0.00439 µM
KURAMOCHI
  IC50: > 0.2 µM
P30-OHK
  IC50: > 0.2 µM
CAS-1
  IC50: 0.116 µM
LAMA-84
  IC50: 0.0527 µM
LAN-6
  IC50: 0.0546 µM
NKM-1
  IC50: > 0.2 µM
MC116
  IC50: > 0.2 µM
ACN
  IC50: 0.0117 µM
DBTRG-05MG
  IC50: 0.00977 µM
SK-UT-1
  IC50: 0.0141 µM
C-33-A
  IC50: 0.00758 µM
A498
  IC50: 0.0465 µM
NB10
  IC50: 0.0152 µM
DOHH-2
  IC50: > 0.2 µM
TE-1
  IC50: 0.046 µM
HDLM-2
  IC50: > 0.2 µM

## CO[C@@H]1[C@H](N(C)C(=O)c2ccccc2)C[C@H]2O[C@]1(C)n1c3ccccc3c3c4c(c5c6ccccc6n2c5c31)C(=O)NC4 [MIDOSTAURIN]
KARPAS-45
  IC50: > 0.512 µM
GI-1
  IC50: 0.319 µM
CAS-1
  IC50: 0.182 µM
DBTRG-05MG
  IC50: > 0.512 µM
SK-UT-1
  IC50: 0.33 µM
DOHH-2
  IC50: > 0.512 µM

## CC1=C(/C=C/C(C)=C/C=C/C(C)=C/C(=O)O)C(C)(C)CCC1 [TRETINOIN]
HL-60
  IC50: 0.285 µM
EW-16
  IC50: > 10 µM
LS-411N
  IC50: > 10 µM
LB771-HNC
  IC50: > 10 µM
SW756
  IC50: > 10 µM
NCI-H1155
  IC50: > 10 µM
LC-2-ad
  IC50: > 10 µM
J-RT3-T3-5
  IC50: > 10 µM
EKVX
  IC50: > 10 µM
NCI-H226
  IC50: > 10 µM
HT
  IC50: > 10 µM
SCH
  IC50: > 10 µM
RXF 393
  IC50: > 10 µM
SK-PN-DW
  IC50: > 10 µM
C32
  IC50: > 10 µM
KARPAS-45
  IC50: 2.6 µM
TE-12
  IC50: > 10 µM
KY821
  IC50: 5.7 µM
UACC-257
  IC50: > 10 µM
TGBC24TKB
  IC50: > 10 µM
GI-1
  IC50: > 10 µM
ES3
  IC50: > 10 µM
LB1047-RCC
  IC50: > 10 µM
LU-134-A
  IC50: > 10 µM
A4-Fuk
  IC50: > 10 µM
SW 954
  IC50: > 10 µM
JVM-2
  IC50: 1.17 µM
LNCaP-Clone-FGC
  IC50: > 10 µM
TE-11
  IC50: > 10 µM
DU-4475
  IC50: > 10 µM
KU812 cell line
  IC50: 0.536 µM
CTV-1
  IC50: 0.963 µM
ES4
  IC50: > 10 µM
KURAMOCHI
  IC50: > 10 µM
P30-OHK
  IC50: > 10 µM
CAS-1
  IC50: > 10 µM
LAMA-84
  IC50: 0.996 µM
LAN-6
  IC50: > 10 µM
NKM-1
  IC50: 8.41 µM
MC116
  IC50: > 10 µM
ACN
  IC50: 1.65 µM
DBTRG-05MG
  IC50: > 10 µM
SK-UT-1
  IC50: > 10 µM
C-33-A
  IC50: > 10 µM
A498
  IC50: > 10 µM
NB10
  IC50: > 10 µM
DOHH-2
  IC50: > 10 µM
TE-1
  IC50: > 10 µM
HDLM-2
  IC50: > 10 µM
